Measured values published in patent US10369185B2, “Methods and compositions for enhancement of ability to concentrate” (KYOWA HAKKO BIO CO., LTD., priority 2014, dated 2019).
Entries after “also recorded” stand apart in the source; their conditions may differ. Peptide text beside a SMILES is read from it.

Legend:
Type in all cases: in vivo, human
male runners [1] = assay: Dynavision D2 visual, motor and physical reaction time to a visual stimulus; conditions: between groups
Description: The testing protocol is depicted in FIG. 1. Data collection occurred on four separate occasions. Each session required participants to perform a 60-min run at 75% of their previously measured VO2max. Following this run, all participants performed a run at 90% of their VO2max until volitional exhaustion. All participants performed their first trial (DHY) without any rehydration. During this session the total weight lost during the trial was determined. The fluid loss that occurred during this session was then used to determine the participant's swear rate (L·hr^−1). To continue in the study, participant's sweat rate was or exceeded 1.3 L·hr^−1. […] The first assessment measured the participant's visual, motor, and physical reaction time to a stimulus with the dominant hand. […] Visual reaction time was determined as the amount of time from identifying the stimulus and initiating a reaction by leaving the home button. Motor response time was determined by the time (measured in 1/100's of a second) it took to physically strike the stimulus following the initial visual reaction and was measured as the amount of time from the hand leaving the home button and striking the stimulus. Physical reaction time was determined by the total elapsed time from the introduction of the target stimulus to the physical completion of the task (returning to the home button after striking the stimulus). […]

male runners [2] = assay: Serial subtraction test (modified Serial Sevens Test); conditions: between trials
Description: (§1) The testing protocol is depicted in FIG. 1. Data collection occurred on four separate occasions. Each session required participants to perform a 60-min run at 75% of their previously measured VO2max. Following this run, all participants performed a run at 90% of their VO2max until volitional exhaustion. All participants performed their first trial (DHY) without any rehydration. During this session the total weight lost during the trial was determined. The fluid loss that occurred during this session was then used to determine the participant's swear rate (L·hr^−1). To continue in the study, participant's sweat rate was or exceeded 1.3 L·hr^−1. During the next three trails participants were provided 250 ml of fluid every 15 minutes in equal amounts. During one of the trials participants consumed only a flavored sports drink (ELECT only), while during the other trials participants consumed the alanine-glutamine supplement (Sustamine™) mixed in the same flavored sports drink at either a low (LD: 300 mg per 500 ml) or high (HD: 1 g per 500 ml) dose.
A modified version of the original Serial Sevens Test was utilized to analyze cognitive function. […] The number of correct answers and the average time per correct answer was recorded.

male runners [3] = assay: Run at 90% VO2max until volitional exhaustion; conditions: LD and HD compared to DHY
Description: as §1

## C[C@H](N)C(=O)N[C@@H](CCC(N)=O)C(=O)O [L-Alanyl-L-Glutamine] (H-Ala-Gln-OH)
Male runners [1]
  change in visual, motor and physical reaction times to a visual stimulus: No significant differences were noted between groups
Male runners [2]
  serial subtraction tests and time per successful answer: No significant differences
Male runners [3]
  run times at 90% VO2max (time to exhaustion): significantly longer at LD and HD compared to DHY; also recorded: improved time to exhaustion compared to when subjects were dehydrated; also recorded: can enhance time to exhaustion
